The text below walks through data of patent US5534515A, “Pyrrolopyridazines having gastrointestinal protective effects” (BYK Gulden Lomberg Chemische Fabrik GmbH, priority 1991, dated 1996).

The subject of the test is acid secretion of the perfused rat stomach stimulated by pentagastrin. Nature of the test: Investigation of the secretion-inhibiting effect on the perfused rat stomach. It counts as in vivo, rat (CD rats, female). The settings on record: for Maximum inhibition of acid secretion: N = 3, vs untreated control group, pentagastrin stimulation. From the text: The effect of the compounds according to the invention after intravenous administration on the acid secretion of the perfused rat stomach stimulated by pentagastrin in vivo is shown in the following Table 2.
The abdomen of anesthesized rats (CD rats, female, 200-250 g; 1.5 g/kg i.m. of urethane) was opened after tracheotomy by a median upper abdominal incision and a PVC catheter was fixed transorally in the esophagus and a further one via the pylorus in such a way that the ends of the tubes just projected into the stomach lumen. The catheter leading from the pylorus led outwards via a side opening in the right-hand abdominal wall.
After thorough irrigation (about 50-100 ml), a flow of warm physiological NaCl solution at 37° C. was continuously passed through the stomach (0.5 ml/min, pH 6.8-6.9; Brun-Unita I). The pH (pH meter 632, glass electrode EA 147; .phi.=5 mm, Metrohm) was determined in the effluent collected (25 ml measuring cylinder) at 15 min intervals in each case and the secreted HCl by titration with a freshly prepared 0.01 N NaOH solution to pH 7 (Dosimat 655 Metrohm).
The stimulation of gastric secretion was effected by continuous infusion of 1 μg/kg (=1.65 ml/h) i.v. of pentagastrin (left femoral vein) about 30 min after the end of the operation (i.e. after determination of 2 preliminary fractions). The substances to be tested were administered intravenously (left jugular vein) in a 1 ml/kg liquid volume 60 min after the start of continuous pentagastrin infusion.
The body temperature of the animals was kept at a constant 37.8°-38° C. by infrared irradiation and heating pads (automatic, stepless control via rectal temperature sensor).
The maximum decrease in acid secretion (15 min fractions) of each treated group compared to that of the untreated control group (=100%) was used as a measure of the secretion-inhibiting effect.

On to `Cc1c(CO)c2cnnc(OCc3ccc(F)cc3)c2n1Cc1ccccc1` [Example 1a, 1-Benzyl-7-(4-fluorobenzyloxy)-3-hydroxymethyl-2-methylpyrrolo[2,3-d]pyridazine], for which the ED50 (usually the midpoint of the dose-response relation) (Rattus norvegicus, iv, dose (interpolated) which causes a maximum inhibition of HCl secretion by 50%, read-out: approx. ED50) was approximately 1.1 µmol/kg. For the same compound, the “Maximum inhibition of acid secretion” value (dose 0.3 μmol/kg i.v.) amounted to 22%, the “Maximum inhibition of acid secretion” value (dose 1.0 μmol/kg i.v.) is 52%, the “Maximum inhibition of acid secretion” value (dose 3.0 μmol/kg i.v.) turned out to be 70% and the “Maximum inhibition of acid secretion” value (dose 10.0 μmol/kg i.v.) is listed as 94%.
